Values of other authors in patent publication US12239131B2, “Plant growth regulator concentrate and use thereof” (FINE AGROCHEMICALS LIMITED, priority 2018, dated 2025).

Row | Compound | pKa
1 | CC1(C)C2CCC1(CS(=O)(=O)O)C(=O)C2 (stereo not drawn) [Camphor sulfonic acid] | 1.2
2 | CC(O)(P(=O)(O)O)P(=O)(O)O [HEDP, (1-hydroxyethane-1,1-diyl)bis(phosphonic acid)] | 1.35
3 | O=S(=O)(O)CCO [HESA, 2-hydroxyethyl sulphonic acid] | −1.4
